Assay results taken from article PMC9491098, “Discovery of novel drug-like antitubercular hits targeting the MEP pathway enzyme DXPS by strategic application of ligand-based virtual screening” (Chemical Science, 2022).
≈ marks a conversion by molar mass, not a printed value. Where “and” joins values, the source holds several entries; their conditions need not be identical. Equal values may be shown once. Read-outs that look alike come from different tables or passages of the source.

Tests used:
[1] = target: T1, MtDXPS (Mycobacterium tuberculosis, UniProt P9WNS3); assay: biochemical; details: for mode of inhibition on MtDXPS: MOI study, comparison of IC50 under varied [ThDP], [PYR], [D-GAP]; for equilibration time (slow-binding): time-dependent progress curves, Fig. 4A, inhibitor 100 µM
T1 sequence (P9WNS3 whole entry, looked up): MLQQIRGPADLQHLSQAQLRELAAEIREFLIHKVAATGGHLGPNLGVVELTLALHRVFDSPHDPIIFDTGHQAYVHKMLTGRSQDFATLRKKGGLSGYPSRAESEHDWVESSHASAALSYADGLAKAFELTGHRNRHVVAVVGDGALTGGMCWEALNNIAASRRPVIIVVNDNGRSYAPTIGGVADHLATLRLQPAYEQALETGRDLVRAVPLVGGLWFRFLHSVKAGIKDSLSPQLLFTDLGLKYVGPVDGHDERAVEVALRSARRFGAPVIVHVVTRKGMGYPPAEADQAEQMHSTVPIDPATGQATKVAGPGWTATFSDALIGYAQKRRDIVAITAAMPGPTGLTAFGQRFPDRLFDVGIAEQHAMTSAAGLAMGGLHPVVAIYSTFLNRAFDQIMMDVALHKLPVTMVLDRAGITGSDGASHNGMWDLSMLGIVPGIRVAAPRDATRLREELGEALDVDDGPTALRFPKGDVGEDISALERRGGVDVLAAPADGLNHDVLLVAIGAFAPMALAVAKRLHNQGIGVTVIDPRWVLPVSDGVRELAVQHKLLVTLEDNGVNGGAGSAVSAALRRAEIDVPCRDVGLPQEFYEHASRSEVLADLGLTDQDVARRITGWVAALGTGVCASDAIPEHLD

[2] = target: DrDXPS (WT) (Deinococcus radiodurans, UniProt Q9RUB5); assay: biochemical; assay type: biochemical; details: IC50, Fig. 5F/G, DrDXPS (WT)
Chain of DrDXPS (WT) (Q9RUB5 whole entry, looked up): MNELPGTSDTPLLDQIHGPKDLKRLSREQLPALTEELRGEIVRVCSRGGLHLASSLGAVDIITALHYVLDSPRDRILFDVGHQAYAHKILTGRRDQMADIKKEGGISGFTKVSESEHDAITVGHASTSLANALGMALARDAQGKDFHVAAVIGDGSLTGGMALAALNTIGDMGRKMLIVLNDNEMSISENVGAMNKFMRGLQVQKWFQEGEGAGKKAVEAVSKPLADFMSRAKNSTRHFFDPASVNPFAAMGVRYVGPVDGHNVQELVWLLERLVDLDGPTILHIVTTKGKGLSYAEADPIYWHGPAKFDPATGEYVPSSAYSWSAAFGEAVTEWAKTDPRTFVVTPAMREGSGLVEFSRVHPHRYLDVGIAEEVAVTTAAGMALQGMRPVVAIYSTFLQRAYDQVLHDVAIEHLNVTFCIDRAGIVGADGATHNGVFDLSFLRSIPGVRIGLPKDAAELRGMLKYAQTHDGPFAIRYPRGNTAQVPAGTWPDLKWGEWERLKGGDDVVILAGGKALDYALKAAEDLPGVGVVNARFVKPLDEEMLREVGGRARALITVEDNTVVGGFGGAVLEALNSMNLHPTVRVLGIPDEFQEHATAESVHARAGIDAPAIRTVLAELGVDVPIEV

[3] = target: T1, MtDXPS; assay: biochemical
[4] = target: T1, MtDXPS; assay: microscale thermophoresis (MST) dissociation constant; assay type: binding; details: Fig. 4F
Protocol: ETB + A <===> ETAB : Ka2 (Ka2 is the dissociation constant of pyruvate with […]
ETA + B <===> ETAB : Kb2 (Kb2 is the dissociation constant of ThDP with DXPS) E + I <===> EI* : Ki* (Ki* is the Morrison inhibition constant of inhibitor with apoDXPS) ETAB ---> ET + P : kcat (kcat is the catalytic constant of DXPS) […]
microscale thermophoresis (MST)
MST measurements were performed on a Monolith NT.115 (NanoTemper
Technologies GmbH, Germany) instrument using red-dye-NHS fluorescent labeling.
Each purified MtDXPS sample was labeled with red-dye-NHS second generation dye, according to the supplied protocol. Measurements were performed in 100 m M Tris-HCl (pH 7.6) containing 0.05% Tween-20 and 5% DMSO in premium treated capillaries.
The final concentration of each labeled protein in the assay was 100 n M. The inhibitors were titrated in 1:1 dilutions according to the supplier’s recommendations. All binding reactions were incubated at room temperature for 30 min before loading, and then pre-incubated for 5 min at room temperature after loading into the capillaries. Experiments were performed in duplicates, using 40% LED power, medium MST power, laser on time 20 s, and laser off time 3 s. Kds of the inhibitors were extracted from raw data at a 10–20 s on time according to the manufacturer’s instructions. A denaturation test was performed to exclude any nonspecific spectral interactions between the inhibitors […]
The solutions were vortexed, and then the rest of the assay components was added in the following order: HEPES, pH = 8 (100 m M), bovine serum albumin (1 mg/mL), cysteine (2 mM), ThDP (0.325 μM), coenzyme-A (150 μM), TCEP (300 μM), pyruvate (150 μM) and MgCl2 (1 mM). […] Porcine PDH (final concentration of 0.01 U/ mL) was then added to initiate the reactions, which were monitored spectrophotometrically by measuring the […]

[5] = system: E. coli strain BL21 (DE3) pQEYAEM; assay: microbe, parasite or virus in culture; assay type: cell-based; details: Escherichia coli, Fig. 6A
[6] = system: E. coli strain BL21 (DE3) pET22b-H6[…]; assay: microbe, parasite or virus in culture; assay type: cell-based; details: Escherichia coli, Fig. 6B
[7] = system: M. tuberculosis strains; assay: MIC against multiple M. tuberculosis strains, absolute concentration method on 7H10 agar; assay type: cell-based; details: Mycobacterium tuberculosis
[8] = system: HepG2; assay: toxicity against human cell lines; assay type: cell-based; details: HepG2, 48 h, read-out: Toxicity Human cell lines EC50 (μM) HepG2
[9] = system: HEK293; assay: toxicity against human cell lines; assay type: cell-based; details: HEK293, 48 h, read-out: Toxicity Human cell lines EC50 (μM) HEK293
[10] = system: A549; assay: toxicity against human cell lines; assay type: cell-based; details: A549, 48 h, read-out: Toxicity Human cell lines EC50 (μM) A549
[11] = system: zebrafish larvae; assay: toxicity against zebrafish larvae; assay type: in vivo; details: Table S4, 10 larvae per condition
[12] = system: E. coli TolC; assay: microbe, parasite or virus in culture; assay type: cell-based; details: Escherichia coli
[13] = target: T1, MtDXPS
[14] = metabolic stability in human liver S9 fraction; details: pooled liver S9 fraction
Protocol: For vitro assessment of metabolic stability, 10 µL of each compound (10 µM) was
incubated with human pooled liver S9-fraction (1 mg/mL, Corning, Corning, NY, USA)
in a master mix containing 2 mM NADP, 10 mM glucose-6-phosphate, 10 U/mL
glucose-6-phosphate dehydrogenase, 1 mM UDPGA, 0.1 mM PAPS, 10 mM MgCl2.
acetonitrile containing diphenhydramine as internal standard at 4 °C. The supernatant
was used for LC-MS analysis and half life time t1/2 was calculated from decreasing
concentrations/peak areas.
LC conditions: samples were analyzed with an Ultimate 3000 HPLC (Thermo Fisher,
Waltham, MA, USA) coupled to a TSQ Quantum Access Max triple quadrupole mass
spectrometer (Thermo Fisher, Waltham, MA, USA) in SRM mode. Analysis was
performed on a Nucleodur C18 Pyramid column (3 µm, 2x150 mm, Macherey-Nagel,
Düren, Germany) with a flow of 0.6 mL/min and a water (0.1% formic acid) and
acetonitrile (0.1% formic acid) eluent system. Gradient as follows: 10% acetonitrile for
1 min, 10–90% acetonitrile over 0.7 min, 90% acetonitrile for 1.8 min, equilibration at
10% acetonitrile for 1 min.
MS conditions: calibration of mass spectrometer parameters was performed
individually for each compound:

[15] = [ThDP] 0.1 μM (1.6x Km), [PYR] 0.5 mM (2.4x), [D-GAP] […] (1.5x)
[16] = [ThDP] 0.1 μM (1.6x Km), [PYR] […] (1.2x), [D-GAP] 0.5 mM (2.9x)
[17] = [ThDP] 0.1 μM (1.6x Km), [PYR] […] (1.2x), [D-GAP] […] (1.5x)
[18] = [ThDP] 0.2 μM (3.2x Km), [PYR] […] (1.2x), [D-GAP] […] (1.5x)
[19] = Morrison constant Ki* against MtDXPS, two-step tight-binding Morrison model, Dynafit, text and Fig. 4C–E
[20] = [IPTG] 0.5 mM (E. coli IspC overexpression)
[21] = [IPTG] 0.5 mM (MtDXPS overexpression)
[22] = read-out: Antitubercular activity Strain & MIC (μM) A
[23] = read-out: Antitubercular activity Strain & MIC (μM) B
[24] = read-out: Antitubercular activity Strain & MIC (μM) C
[25] = read-out: Antitubercular activity Strain & MIC (μM) D
[26] = read-out: Antitubercular activity Strain & MIC (μM) E
[27] = read-out: Antitubercular activity Strain & MIC (μM) F
[28] = susceptible, DR, MDR and XDR strains, read-out: antitubercular activity (MIC) against multiple M. tuberculosis strains

In the case of `Cc1nc(N)sc1-c1csc(Nc2ccc(C(F)(F)F)cc2)n1` [Compound 10], the IC50 ([1]; IC50 (μM)) is reported as 32 ± 3 µM, the IC50 ([1]; IC50 against MtDXPS) is reported as 118 ± 10 µM and the “mode of inhibition on MtDXPS” value [1] is reported as “competitive with ThDP and both substrates”. The “equilibration time (slow-binding)” value [1] was roughly 100 s, the IC50 [2, 15] was 108 ± 20 µM and the IC50 [2, 16] was 132 ± 22 µM. For the same compound, the IC50 [2, 17] was 60 ± 11 µM, the IC50 [2, 18] was 81 ± 12 µM and the Ki ([3]; K i* (μM), Table 1C, aminothiazole derivatives, MtDXPS) was 0.2 ± 0.02 µM. The Ki [3, 19] was 0.212 µM and 0.2 to 0.3 µM, the Kd [4] was 0.206 µM and 0.2 µM and the MIC ([5]; [IPTG] 0 mM) was 15 ± 3 µM (≈ 5.35 µg/mL). It also gave an MIC [5, 20] of 17 ± 2 µM (≈ 6.06 µg/mL), an MIC ([6]; [IPTG] 0 mM) of 13 ± 1 µM (≈ 4.63 µg/mL) and an MIC [6, 21] of 35 ± 3 µM (≈ 12.5 µg/mL). For the same compound, the MIC [7, 22] was greater than 10 µM, the MIC [7, 23] was 5 µM (≈ 1.78 µg/mL) and the MIC [7, 24] was 5 µM (≈ 1.78 µg/mL). For the same compound, the MIC [7, 25] was 10 µM (≈ 3.56 µg/mL), the MIC [7, 26] was 5 to 10 µM (≈ 1.78 to 3.56 µg/mL) and the MIC [7, 27] was 5 to 10 µM (≈ 1.78 to 3.56 µg/mL). It also gave an MIC [7, 28] of 5 to 10 µM (≈ 1.78 to 3.56 µg/mL), an EC50 [8] greater than 50 µM and an EC50 [9] of 25 to 50 µM. The EC50 [10] was greater than 50 µM, the “number of living zebrafish larvae” value ([11]; 2 µM, 24 h (2 dpf)) was 10 and the “number of living zebrafish larvae” value ([11]; 2 µM, 48 h (3 dpf)) was 10. The “number of living zebrafish larvae” value ([11]; 2 µM, 72 h (4 dpf)) was 10, the “number of living zebrafish larvae” value ([11]; 2 µM, 96 h (5 dpf)) was 10 and the “number of living zebrafish larvae” value ([11]; 10 µM, 24 h (2 dpf)) was 10. For the same compound, the “number of living zebrafish larvae” value ([11]; 10 µM, 48 h (3 dpf)) was 10, the “number of living zebrafish larvae” value ([11]; 10 µM, 72 h (4 dpf)) was 10 and the “number of living zebrafish larvae” value ([11]; 10 µM, 96 h (5 dpf)) was 10. The “number of living zebrafish larvae” value ([11]; 30 µM, 24 h (2 dpf)) was 2, the “number of living zebrafish larvae” value ([11]; 30 µM, 48 h (3 dpf)) was 0 and the “number of living zebrafish larvae” value ([11]; 30 µM, 72 h (4 dpf)) was 0. The “number of living zebrafish larvae” value ([11]; 30 µM, 96 h (5 dpf)) was 0, the “number of living zebrafish larvae” value ([11]; 100 µM, 24 h (2 dpf)) was 0 and the “number of living zebrafish larvae” value ([11]; 100 µM, 48 h (3 dpf)) was 0. For the same compound, the “number of living zebrafish larvae” value ([11]; 100 µM, 72 h (4 dpf)) was 0, the “number of living zebrafish larvae” value ([11]; 100 µM, 96 h (5 dpf)) was 0 and the MIC [12] was 22.2 ± 3.1 µM (≈ 7.91 µg/mL). The “hit validation (false-positive check)” value [13] was “true inhibitors” and the half-life at 10 µM [14] was greater than 60 min.
In the case of `ON=C(Cc1ccc(Cl)cc1)c1ccc(O)cc1O` [Compound 9], the IC50 ([1]; IC50 (μM)) is reported as 44 ± 8 µM, the IC50 ([1]; IC50 against MtDXPS) is reported as 140 ± 12 µM and the IC50 ([1]; IC50 against MtDXPS (MOI study)) is reported as 17 µM and 35 µM and 58 µM and 121 µM. The “mode of inhibition on MtDXPS” value [1] was “competitive with ThDP and both substrates”, the “equilibration time (slow-binding)” value [1] was roughly 100 s and the IC50 [2, 15] was 59 ± 10 µM. For the same compound, the IC50 [2, 16] was 70 ± 11 µM, the IC50 [2, 17] was 33 ± 4 µM and the IC50 [2, 18] was 54 ± 7 µM. For the same compound, the Ki ([3]; K i* (μM), Table 1B, oxime derivatives, MtDXPS) was 0.3 ± 0.02 µM, the Ki [3, 19] was 0.271 µM and 0.2 to 0.3 µM and the Kd [4] was 0.221 µM and 0.2 µM. It also gave an MIC ([5]; [IPTG] 0 mM) of 12 ± 3 µM (≈ 3.33 µg/mL), an MIC [5, 20] of 10 ± 1 µM (≈ 2.78 µg/mL) and an MIC ([6]; [IPTG] 0 mM) of 15 ± 1 µM (≈ 4.17 µg/mL). For the same compound, the MIC [6, 21] was greater than 200 µM, the MIC [7, 22] was 10 µM (≈ 2.78 µg/mL) and the MIC [7, 23] was 10 µM (≈ 2.78 µg/mL). The MIC [7, 24] was 10 µM (≈ 2.78 µg/mL), the MIC [7, 25] was 10 µM (≈ 2.78 µg/mL) and the MIC [7, 26] was 10 µM (≈ 2.78 µg/mL). For the same compound, the MIC [7, 27] was 5 to 10 µM (≈ 1.39 to 2.78 µg/mL), the MIC [7, 28] was 5 to 10 µM (≈ 1.39 to 2.78 µg/mL) and the EC50 [8] was greater than 50 µM. For the same compound, the EC50 [9] was greater than 50 µM, the EC50 [10] was greater than 50 µM and the “number of living zebrafish larvae” value ([11]; 2 µM, 24 h (2 dpf)) was 10. For the same compound, the “number of living zebrafish larvae” value ([11]; 2 µM, 48 h (3 dpf)) was 10, the “number of living zebrafish larvae” value ([11]; 2 µM, 72 h (4 dpf)) was 10 and the “number of living zebrafish larvae” value ([11]; 2 µM, 96 h (5 dpf)) was 10. For the same compound, the “number of living zebrafish larvae” value ([11]; 10 µM, 24 h (2 dpf)) was 10, the “number of living zebrafish larvae” value ([11]; 10 µM, 48 h (3 dpf)) was 10 and the “number of living zebrafish larvae” value ([11]; 10 µM, 72 h (4 dpf)) was 10. The “number of living zebrafish larvae” value ([11]; 10 µM, 96 h (5 dpf)) was 10, the “number of living zebrafish larvae” value ([11]; 30 µM, 24 h (2 dpf)) was 10 and the “number of living zebrafish larvae” value ([11]; 30 µM, 48 h (3 dpf)) was 10. The “number of living zebrafish larvae” value ([11]; 30 µM, 72 h (4 dpf)) was 10, the “number of living zebrafish larvae” value ([11]; 30 µM, 96 h (5 dpf)) was 10 and the “number of living zebrafish larvae” value ([11]; 100 µM, 24 h (2 dpf)) was 5. For the same compound, the “number of living zebrafish larvae” value ([11]; 100 µM, 48 h (3 dpf)) was 2, the “number of living zebrafish larvae” value ([11]; 100 µM, 72 h (4 dpf)) was 0 and the “number of living zebrafish larvae” value ([11]; 100 µM, 96 h (5 dpf)) was 0. For the same compound, the MIC [12] was 21.9 ± 1.3 µM (≈ 6.08 µg/mL), the “hit validation (false-positive check)” value [13] was “true inhibitors” and the half-life at 10 µM [14] was 20 min.
